How the values were obtained:
[1] = system: marker genes of atrial myocytes (NR2F1, NR2F2, NPPA, KCNA5, KCNJ3, TBX5 and MYL7); experiment: Expression analysis of atrial myocyte marker genes in sorted cell subpopulations; assay type: cell-based, human; details: both CD151-high and CD151-low, compared to DMSO-added control population
Method: (§1) On the 6th day of differentiation, the medium was replaced with cardiomyocyte induction medium 3, and from the 8th day of differentiation onwards, 3 μM of γ-secretase inhibitor (LY411575) that inhibits Notch signaling was added when changing the medium, and the cells were cultured at 37° C. under 5% oxygen conditions until the 10th day. Cells added with 0.1% DMSO were also prepared as a control. Thereafter, the medium was changed on the 10th, 13th, 15th, and 17th days, and after the medium change on the 10th day, the cells were cultured under normal oxygen conditions until the 20th day. As the cardiomyocyte induction medium 3, StemPro-34 SFM supplemented with 1% L-glutamine, 150 μg/ml transferrin, 50 μg/ml ascorbic acid, 4×10^-4 M monothioglycerol, and 5 ng/ml VEGF was used.
(§2) The expression of marker genes indicating Notch signal activity and atrial myocyte markers was analyzed for the cardiomyocyte subpopulations “DMSO/CD151-high”, “DMSO/CD151-low”, “Notch inhibitor/CD151-high”, and “Notch inhibitor/CD151-low” obtained in Experimental Example 2.
(§3) According to the conventional method, total RNA was extracted from each cell subpopulation and expression analysis was performed for the target gene of Notch signal (HEY2) and the marker genes of atrial myocytes (NR2F1, NR2F2, NPPA, KCNA5, KCNJ3, TBX5 and MYL7). […]

[2] = system: cardiomyocyte subpopulations differentiated from human iPS cells; experiment: Proportion of atrial myocytes by whole-cell patch clamp electrophysiology; assay type: cell-based; details: for atrial myocytes (%): APD 30/90 less than 0.3 and dv/dtmax 10 or more
Method: as §1
The proportion of atrial myocytes was determined by an electrophysiological method for the “Notch inhibitor/CD151-high” and “Notch inhibitor/CD151-low” cardiomyocyte subpopulations obtained in Experimental Example 2.
Each cell subpopulation was cultured on a fibronectin-coated cover glass. Culture was performed at 37° C. under normal oxygen conditions using StemPro-34 SFM supplemented with 1% L-glutamine, 150 μg/ml transferrin, 50 ug/ml ascorbic acid, 4×10^-4 M monothioglycerol, and 5 ng/ml VEGF, with medium change every 3 days. Cells on the 15th and 16th days of culture were subjected to electrophysiological analysis.
Analysis was performed using the whole-cell patch clamp method using Axopatch 200B amplifier (Molecular Devices) and pCLAMP software. Electrodes were made with glass capillaries (WPI) using a micropipette puller and filled with intracellular solution (130 mM KOH, 130 mM L-aspartic acid, 20 mM KC1, 5 mM NaCl, 10 mM HEPES, 5 mM Mg-ATP, 10 mM EGTA, 1 mM MgC12, PH 7.2). Experiments were performed at 35-37° C. while perfusing Gey's balanced salt solution (Sigma) as the extracellular solution. The spontaneous action potential of each cell was recorded for 1 min in current clamp mode. APD30, APD90, and maximum velocity of waveform rise (dv/dtmax) were calculated from the average waveform of 8-10 consecutive waveforms. Cells showing a waveform with APD 30/90 of less than 0.3 and dv/dtmax of 10 or more were defined as atrial myocytes. Cells showing a waveform with APD 30/90 of 0.3 or more and dv/dtmax of 10 or more or dv/dtmax of less than 10 were classified as other cells. […]

[3] = system: CD151 expression in EmGFP-positive cells induced from human iPS cell line (1390D4 strain); experiment: Sorting of atrial myocyte population based on CD151 expression level (flow cytometry); assay type: cell-based; details: 3 μM LY411575 from day 8 to day 20 of differentiation, mean ± standard error
Method: A cell population containing cardiomyocytes was induced from iPSC under atrial myocyte differentiation conditions or ventricular myocyte differentiation conditions. As iPSC, a double knock-in human iPS cell line (1390D4 strain) was used, in which EmGFP was inserted into the TNNI1 locus and mCherry was inserted into the TNNI3 locus as reporter proteins.
To differentiate iPSC into cardiomyocytes, iPSC was seeded into low-adhesion 6-well plates (2×10^6 cells/1.5 ml/well) and statically cultured at 37° C. and 5% oxygen to form embryoid bodies (day 0). The culture medium used was StemPro-34 SFM (Thermo Fisher Scientific) supplemented with 1% L-glutamine, 150 μg/ml transferrin, […] ascorbic acid, 4×10^-4 M monothioglycerol, 10 μM Rock inhibitor (Y-27632), 2 ng/ml BMP4, and 0.5% Matrigel. […]
On the 20th day of culture, the cell population containing atrial myocytes was dispersed into single cells and the cell number was counted. […] CD151 expression in EmGFP-positive cells was analyzed using a flow cytometer (BD FACS Aria Fusion cell sorter). The fluorescence intensity of 95% or more of the negative control cells was set as the threshold, and the cell subpopulations showing fluorescence intensity lower than the threshold were defined as “CD151-low” and the cell subpopulations showing fluorescence intensity higher than the threshold were defined as “CD151-high”. […]

[4] = system: HEY2 (target gene of Notch signal); experiment: Expression analysis of the target gene of Notch signal (HEY2) in sorted cell subpopulations; assay type: cell-based, human; details: both CD151-high and CD151-low, compared to DMSO-added control
Method: as §1, §2, §3

[5] = CD151-high subpopulation, n = 19
[6] = CD151-low subpopulation, n = 20

For `C[C@H](NC(=O)[C@@H](O)c1cc(F)cc(F)c1)C(=O)N[C@@H]1C(=O)N(C)c2ccccc2-c2ccccc21` [Notch inhibitor], the “expression of atrial myocyte markers” value [1] was “increased”, the “other cells (%)” value [2, 5] was 68% and the “atrial myocytes (%)” value [2, 5] was 32%. For the same compound, the “other cells (%)” value [2, 6] was 20%, the “atrial myocytes (%)” value [2, 6] was 80% and the “Cell population (%) CD151-high” value [3] was 39.9 ± 3.3%. The “Cell population (%) CD151-low” value [3] was 60.1 ± 3.3% and the “expression of the HEY2 gene” value [4] was “reduced”.

Reference: patent US20260043007A1, “METHOD FOR PRODUCING CARDIAC MUSCLES” (Kyoto University, priority 2022, published 2026)
